From patent US20050239656A1, “Pyridine compounds or salts thereof and herbicides containing the same” (priority 2002, published 2005)

Columns and labels:
japanese bulrush = assay: Test Example 3: paddy pot test, application under submerged conditions; format: in vivo, Scirpus juncoides; conditions: submerged application at 0.5 leaf stage, visually observed 14 days after application, 0 = non-treated, 100 = complete kill
How it was run: (§1)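 Barnyardgrass and japanese bulrush sown in flooded paddy soil in greenhouse pots, japanese ribbon wapato tubers planted 1–2 days later; water depth kept at 3–4 cm. Diluted wettable powder or emulsifiable concentrate applied into water at 0.5-leaf or primary-leaf stage at set active-ingredient doses. Growth control scored visually at 14 days, 0 (untreated) to 100% (complete kill).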

soybean [1] = assay: Test Example 2: soil surface treatment, upland pot test; format: in vivo, Glycine max Merr.; conditions: observed 20th to 28th day
How it was run: (§2)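 Visual growth-control ratings (0 = untreated, 100 = complete kill) were taken 20–28 days after soil surface application. The spray was made one day post-sowing in upland soil pots, using formulated compound diluted with water at 1,500 L/ha at a set active ingredient rate.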

green foxtail [2] = assay: as above; format: in vivo, Setaria viridis L.; conditions: observed 20th to 28th day
How it was run: as §2

redroot pigweed [3] = assay: as above; format: in vivo, Amaranthus retroflexus L.; conditions: observed 20th to 28th day
How it was run: as §2

crabgrass [4] = assay: as above; format: in vivo, Digitaria sanguinalis L.; conditions: observed 20th to 28th day
How it was run: as §2

corn [5] = assay: Test Example 1: foliage treatment, upland pot test; format: in vivo, Zea mays L.; conditions: crop, active ingredient 500 g/ha, observed 18th to 23rd day, 0 = non-treated, 100 = complete kill
How it was run: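 Corn seeds were sown in upland field soil held in a 1/170,000 ha pot and grown to the 2.1 to 3.2 leaf stage. A wettable powder or emulsifiable concentrate of the test compound was diluted with water at 500 L/ha, given 0.1% (v/v) agricultural spreader, and sprayed onto the foliage with a small sprayer. Growth controlling degree (%) was scored visually 18th to 23rd days later, from 0 (non-treated) to 100 (complete kill).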

velvetleaf [6] = assay: Test Example 2: soil surface treatment, upland pot test; format: in vivo, Abutilon theophrasti MEDIC.; conditions: observed 20th to 28th day
How it was run: as §2

wheat [7] = assay: Test Example 1: foliage treatment, upland pot test; format: in vivo, Triticum spp.; conditions: crop, active ingredient 500 g/ha, observed 18th to 23rd day, 0 = non-treated, 100 = complete kill
How it was run: (§3)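 Crops and weeds were sown in upland soil pots and sprayed post-emergence at set leaf stages (soybean 0.1–0.4, wheat 1.3–2.4, rice 1.2–2.6, barnyardgrass 1.3–2.8). Formulated compound was applied in 500 L/ha water with 0.1% spreader. Growth control (0–100%) was rated visually 18–23 days later.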

soybean [8] = assay: Test Example 1: foliage treatment, upland pot test; format: in vivo, Glycine max Merr.; conditions: crop, active ingredient 500 g/ha, observed 18th to 23rd day, 0 = non-treated, 100 = complete kill
How it was run: as §3

redroot pigweed [9] = assay: Test Example 1: foliage treatment, upland pot test; format: in vivo, Amaranthus retroflexus L.; conditions: active ingredient 500 g/ha, observed 18th to 23rd day, 0 = non-treated, 100 = complete kill
corn [10] = assay: Test Example 2: soil surface treatment, upland pot test; format: in vivo, Zea mays L.; conditions: observed 20th to 28th day
How it was run: as §2

rice [11] = assay: as above; format: in vivo, Oryza sativa L.; conditions: observed 20th to 28th day
How it was run: as §2

wheat [12] = assay: as above; format: in vivo, Triticum spp.; conditions: observed 20th to 28th day
How it was run: as §2

prickly sida [13] = assay: Test Example 1: foliage treatment, upland pot test; format: in vivo, Sida spinosa L.; conditions: active ingredient 500 g/ha, observed 18th to 23rd day, 0 = non-treated, 100 = complete kill
barnyardgrass [14] = assay: Test Example 3: paddy pot test, application under submerged conditions; format: in vivo, Echinochloa crus-galli L.; conditions: submerged application at 0.5 leaf stage, visually observed 14 days after application, 0 = non-treated, 100 = complete kill
How it was run: as §1

green foxtail [15] = assay: Test Example 1: foliage treatment, upland pot test; format: in vivo, Setaria viridis L.; conditions: active ingredient 500 g/ha, observed 18th to 23rd day, 0 = non-treated, 100 = complete kill
rice (var. Nihonbare) = assay: Test Example 3: paddy pot test, transplanted rice; format: in vivo, Oryza sativa L.; conditions: applied 4th day after transplantation, visually observed 21st day after application, 0 = non-treated, 100 = complete kill
How it was run: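 Rice (var. Nihonbare) at 2 leaf stage transplanted 3 cm deep into puddled paddy soil under 3–4 cm flooding; on day 4 after transplanting, diluted wettable powder or emulsifiable concentrate applied by pipette under submerged conditions at a set active-ingredient dose. Growth scored visually 21 days after application, 0 (untreated) to 100 (complete kill) %.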

rice [16] = assay: Test Example 1: foliage treatment, upland pot test; format: in vivo, Oryza sativa L.; conditions: crop, active ingredient 500 g/ha, observed 18th to 23rd day, 0 = non-treated, 100 = complete kill
How it was run: as §3

barnyardgrass [17] = assay: Test Example 2: soil surface treatment, upland pot test; format: in vivo, Echinochloa crus-galli L.; conditions: observed 20th to 28th day
How it was run: as §2

crabgrass [18] = assay: Test Example 1: foliage treatment, upland pot test; format: in vivo, Digitaria sanguinalis L.; conditions: active ingredient 500 g/ha, observed 18th to 23rd day, 0 = non-treated, 100 = complete kill
velvetleaf [19] = assay: Test Example 1: foliage treatment, upland pot test; format: in vivo, Abutilon theophrasti MEDIC.; conditions: active ingredient 500 g/ha, observed 18th to 23rd day, 0 = non-treated, 100 = complete kill
barnyardgrass [20] = assay: Test Example 1: foliage treatment, upland pot test; format: in vivo, Echinochloa crus-galli L.; conditions: active ingredient 500 g/ha, observed 18th to 23rd day, 0 = non-treated, 100 = complete kill
How it was run: as §3

prickly sida [21] = assay: Test Example 2: soil surface treatment, upland pot test; format: in vivo, Sida spinosa L.; conditions: observed 20th to 28th day
How it was run: as §2

Structure (SMILES)	Growth controlling degree (%) Soyabean (soybean [1]; active ingredient 500 g/ha)	Growth controlling degree (%) Green foxtail (green foxtail [2]; active ingredient 500 g/ha)	Growth controlling degree (%) Redroot pigweed (redroot pigweed [3]; active ingredient 500 g/ha)	Growth controlling degree (%) Crabgrass (crabgrass [4]; active ingredient 500 g/ha)	Growth controlling degree (%) Corn (corn [5])	Growth controlling degree (%) Velvetleaf (velvetleaf [6]; active ingredient 500 g/ha)	Growth controlling degree (%) wheat (wheat [7])	Growth controlling degree (%) Soybean (soybean [8])	Growth controlling degree (%) Redroot pigweed (redroot pigweed [9])	Growth controlling degree (%) Corn (corn [10]; active ingredient 500 g/ha)	Growth controlling degree (%) Rice (rice [11]; active ingredient 500 g/ha)	Growth controlling degree (%) wheat (wheat [12]; active ingredient 500 g/ha)	Growth controlling degree (%) Prickly sida (prickly sida [13])	Growth controlling degree (%) Green foxtail (green foxtail [15])	Growth controlling degree (%) Rice (rice [16])	Growth controlling degree (%) Barnyardgrass (barnyardgrass [17]; active ingredient 500 g/ha)	Growth controlling degree (%) Crabgrass (crabgrass [18])	Growth controlling degree (%) Velvetleaf (velvetleaf [19])	Growth controlling degree (%) Barnyardgrass (barnyardgrass [20])	Growth controlling degree (%) Prickly sida (prickly sida [21]; active ingredient 500 g/ha)	other results
CC(C)C(c1cnccc1C(F)(F)F)N(C)C(=O)CC1Cc2ccccc2C1 (stereo not drawn) [I-191]	30%	100%	50%	98%	60%	10%	10%	50%	70%	40%	20%	20%	80%	80%	20%	100%	70%	80%	70%	10%	Growth controlling degree (%) Japanese bulrush (japanese bulrush; active ingredient 500 g/ha): 90%; Growth controlling degree (%) Barnyardgrass (barnyardgrass [14]; active ingredient 500 g/ha): 100%; Growth controlling degree (%) Rice (rice (var. Nihonbare); active ingredient 500 g/ha): 20%
CC(C)CC(=O)N(C)C(c1cnccc1C(F)(F)F)C(C)C (stereo not drawn) [I-193]	–	–	–	–	80%	–	80%	80%	80%	–	–	–	90%	80%	80%	–	90%	60%	95%	–	Growth controlling degree (%) Japanese bulrush (japanese bulrush; active ingredient 250 g/ha): 95%; Growth controlling degree (%) Soyabean (soybean [1]; active ingredient 250 g/ha): 10%; Growth controlling degree (%) Green foxtail (green foxtail [2]; active ingredient 250 g/ha): 100%; Growth controlling degree (%) Redroot pigweed (redroot pigweed [3]; active ingredient 250 g/ha): 10%; Growth controlling degree (%) Crabgrass (crabgrass [4]; active ingredient 250 g/ha): 100%; Growth controlling degree (%) Velvetleaf (velvetleaf [6]; active ingredient 250 g/ha): 10%; Growth controlling degree (%) Corn (corn [10]; active ingredient 250 g/ha): 70%; Growth controlling degree (%) Rice (rice [11]; active ingredient 250 g/ha): 80%; Growth controlling degree (%) wheat (wheat [12]; active ingredient 250 g/ha): 60%; Growth controlling degree (%) Barnyardgrass (barnyardgrass [14]; active ingredient 250 g/ha): 100%; Growth controlling degree (%) Rice (rice (var. Nihonbare); active ingredient 250 g/ha): 30%; Growth controlling degree (%) Barnyardgrass (barnyardgrass [17]; active ingredient 250 g/ha): 100%; Growth controlling degree (%) Prickly sida (prickly sida [21]; active ingredient 250 g/ha): 80%
CC(C)C(=O)N(C)C(c1cnccc1C(F)(F)F)C(C)C (stereo not drawn) [I-198]	90%	100%	80%	100%	70%	70%	70%	60%	70%	70%	98%	98%	70%	60%	80%	100%	80%	40%	70%	90%	Growth controlling degree (%) Japanese bulrush (japanese bulrush; active ingredient 250 g/ha): 100%; Growth controlling degree (%) Barnyardgrass (barnyardgrass [14]; active ingredient 250 g/ha): 100%; Growth controlling degree (%) Rice (rice (var. Nihonbare); active ingredient 250 g/ha): 60%
